The text below walks through data of PubChem BioAssay AID1082 (University of Pittsburgh Molecular Library Screening Center, 2008).

Values joined by “and” are separate entries in the source; they are usually repeats but may differ in a detail not shown here. Identical values can stand only once. Active and inactive are the calls of the source. The rule behind the calls is not given here.

This test deals with Serine/threonine-protein kinase PLK1 (Homo sapiens) (UniProt P53350). In words: PLK1 polo box domain binding inhibitors, SAR follow-up, biochemical, fluorescence polarization, synthesized analogs, IC50 (AID 1082). The note with it: PLK1 PBD phosphopeptide binding.
Serine/threonine-protein kinase PLK1 (Homo sapiens), sequence (P53350 whole entry, looked up, the tested form may be a part): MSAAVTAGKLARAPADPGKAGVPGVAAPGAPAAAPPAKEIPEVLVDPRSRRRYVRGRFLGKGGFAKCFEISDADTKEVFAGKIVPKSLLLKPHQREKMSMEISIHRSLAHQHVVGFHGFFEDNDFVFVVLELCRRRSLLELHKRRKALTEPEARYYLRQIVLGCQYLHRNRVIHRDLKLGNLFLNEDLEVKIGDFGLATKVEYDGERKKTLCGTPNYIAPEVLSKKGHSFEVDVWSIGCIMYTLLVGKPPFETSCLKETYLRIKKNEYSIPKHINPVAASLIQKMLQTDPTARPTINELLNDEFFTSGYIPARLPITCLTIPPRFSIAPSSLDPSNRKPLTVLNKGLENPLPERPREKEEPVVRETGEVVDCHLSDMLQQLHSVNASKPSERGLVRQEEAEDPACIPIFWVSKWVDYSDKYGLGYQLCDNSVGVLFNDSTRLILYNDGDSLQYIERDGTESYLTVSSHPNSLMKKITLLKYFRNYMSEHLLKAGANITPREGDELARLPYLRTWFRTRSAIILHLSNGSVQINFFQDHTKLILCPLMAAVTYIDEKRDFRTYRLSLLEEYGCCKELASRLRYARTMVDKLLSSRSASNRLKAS
On to `COc1ccc(/C=C/C(=O)c2c(O)n(CCC3=CCCCC3)c(=O)[nH]c2=O)cc1`, for which the IC50 was > 50 µM (inactive).
On to `CCC(=O)Oc1ccc(C(=O)Nc2c[nH]c(=O)[nH]c2=O)cc1`, for which the IC50 was > 50 µM (inactive).
As to `O=C(Nc1ccccc1)c1c(O)[nH]c(=O)[nH]c1=O`, the IC50 is > 50 µM (inactive).
Take `Cc1ccc(N=Cc2c(O)n(-c3ccc(C)cc3)c(=O)[nH]c2=O)cc1`: the IC50 was > 50 µM (inactive).
In the case of `CCCCOC(=O)c1ccc(NC(=O)c2c(N)n(C)c(=O)[nH]c2=O)cc1` it was > 50 µM (inactive); in that of `CCOC(=O)c1cccc(NC(=O)c2c(O)[nH]c(=O)[nH]c2=O)c1`, > 50 µM (inactive); in that of `CCOC(=O)c1ccc(NC(=O)c2c(N)n(C)c(=O)[nH]c2=O)cc1`, > 50 µM (inactive).
With `CCCOc1ccc(C(=O)Nc2c[nH]c(=O)[nH]c2=O)cc1`, the IC50 was > 50 µM (inactive).
The figure for `COC(=O)c1ccccc1NC(=O)c1c(O)c2c([nH]c1=O)CCCC2` is > 50 µM (inactive); for `Cn1c(N)c(S(=O)(=O)Nc2ccccc2)c(=O)n(C)c1=O` it is > 50 µM (inactive); for `CCCCOC(=O)c1ccc(NC(=O)c2c(O)[nH]c(=O)[nH]c2=O)cc1` it is > 50 µM (inactive).
The figure for `CCOc1ccc(NC(=O)c2c(N)n(C)c(=O)[nH]c2=O)cc1` is > 50 µM (inactive); for `CCOc1ccc(NC(=O)c2c(O)[nH]c(=O)[nH]c2=O)cc1` it is > 50 µM (inactive).
For the compound `Cc1ccc(NC(=O)c2c[nH]c(=O)[nH]c2=O)cc1`, the IC50 was > 50 µM (inactive).
For `CCOC(=O)c1ccc(NS(=O)(=O)c2c(N)n(C)c(=O)n(C)c2=O)cc1`, the IC50 was > 50 µM (inactive).
With `CCOC(=O)c1ccccc1NC(=O)c1c(N)n(C)c(=O)[nH]c1=O`, the IC50 was > 50 µM (inactive).
As for `CCOC(=O)c1ccc(NS(=O)(=O)c2c(N)[nH]c(=O)[nH]c2=O)cc1`, the IC50 is > 50 µM (inactive).
As to `O=c1[nH]c(NC2CCCCC2)c([N+](=O)[O-])c(=O)[nH]1`, the IC50 is > 50 µM (inactive).
Regarding `CCOC(=O)c1cccc(NC(=O)c2c(NCc3ccccc3)[nH]c(=O)[nH]c2=O)c1`, the IC50 was > 50 µM (inactive).
On to `CCOC(=O)c1ccc(NC(=O)c2c(N)n(Cc3ccccc3)c(=O)[nH]c2=O)cc1`, for which the IC50 is > 50 µM (inactive).
The figure for `O=C(Nc1ccccc1)c1c(O)[nH]c(=S)[nH]c1=O` is > 50 µM (inactive); for `Cn1c2c(c(=O)n(C)c1=O)C(c1ccc(C(F)(F)F)cc1)CC(=O)N2` (stereo not given) it is > 50 µM (inactive); for `O=C(N/N=C/c1c(O)[nH]c(=O)[nH]c1=O)c1ccncc1` it is > 50 µM (inactive).
Consider `CCOC(=O)c1ccc(NC(=O)c2c(N)n(C)c(=O)n(C)c2=O)cc1`, for which the IC50 is > 50 µM (inactive).
`CCOC(=O)c1cccc(NC(=O)c2c(N)n(C)c(=O)[nH]c2=O)c1`: the IC50 was > 50 µM (inactive).
In the case of `CCOC(=O)c1ccc(NC(=O)c2c(O)[nH]c(=O)[nH]c2=O)cc1` it was > 50 µM (inactive) and 2.89 µM.
As to `CC1(C)CC(=O)C(C2(O)C(=O)NC(=O)NC2=O)=C(O)C1`, the IC50 was > 50 µM (inactive).
As for `Cn1c(N)c(C(=O)Nc2ccccc2)c(=O)[nH]c1=O`, the IC50 was > 50 µM (inactive).
For the compound `CCOC(=O)c1ccc(NC(=O)c2c(NCc3ccccc3)[nH]c(=O)[nH]c2=O)cc1`, the IC50 is > 50 µM (inactive).
Take `Cn1cc(C(=O)CNc2ccccc2)c(=O)n(C)c1=O`: the IC50 is > 50 µM (inactive).
Regarding `CC(C)c1ccc(NC(=O)COC(=O)c2c[nH]c(=O)[nH]c2=O)cc1`, the IC50 was > 50 µM (inactive).
Regarding `O=c1[nH]c(=S)[nH]c(O)c1/C=N/Nc1ccccc1`, the IC50 is > 50 µM (inactive).
The figure for `CCOC(=O)CCCCCNC(=O)c1c(N)n(C)c(=O)n(C)c1=O` is > 50 µM (inactive); for `CCOC(=O)c1ccccc1NC(=O)c1c(O)[nH]c(=O)[nH]c1=O` it is > 50 µM (inactive).
With `CCOC(=O)c1ccccc1NC(=O)c1c(O)[nH]c(=S)[nH]c1=O`, the IC50 is > 50 µM (inactive).
